Assay results: PMC9962283, “The Plant Derived 3-3′-Diindolylmethane (DIM) Behaves as CB2 Receptor Agonist in Prostate Cancer Cellular Models” (International Journal of Molecular Sciences, 2023)
Entries after “also recorded” stand apart in the source; their conditions may differ.

Legend:
[1] = system: cannabinoid CB1 or CB2 receptors (LNCaP cell membranes); test: [35S]GTPγS binding in LNCaP cell membranes; assay type: biochemical, human; conditions: agonist alone, read-out: EC50, stimulation of [35S]GTPγS binding
Description: (§1) Binding assays with [^35S]GTPγS were performed with PC3 or LNCaP cell membranes. Both PC3 and LNCaP cells were removed from flasks by scraping and then frozen as a pellet at −20 °C until required. Before use in a radioligand-binding assay, cells were defrosted, diluted in Tris buffer (50 mM Tris–HCl, 50 mM Tris-Base) and homogenized. Protein assays were performed using a Bio-Rad Dc kit (Bio-Rad©, Watford, UK).
The measurement of ligand-stimulated [^35S]GTPγS binding to cannabinoid CB1 or CB2 receptors was adapted from methods described previously. The assays were carried out with GTPγS-binding buffer (50 mM Tris–HCl, 50 mM Tris-Base, 5 mM MgCl2, 1 mM ethylenediaminetetraacetic acid, 100 mM NaCl, 1 mM dithiothreitol and 0.1% bovine serum albumin) in the presence of [^35S]GTPγS and GDP, in a final volume of 500 μL. Binding was initiated by the addition of [^35S]GTPγS to the wells. Non-specific binding was measured in the presence of 30 μM GTPγS. The drugs were incubated in the assay for 60 min at 30 °C. The reaction was terminated by a rapid vacuum filtration method using Tris-binding buffer, as described previously, and the radioactivity was quantified by liquid scintillation spectrometry. In all the [^35S]GTPγS-binding assays, we used 0.1 nM [^35S]GTPγS, 30 μM GDP and a protein concentration of 40 μg per well for PC3 and LNCaP cell membranes. Compounds were stored at −20 °C in DMSO. […]

[2] = system: FSK-induced cAMP production in PC3 cells; test: Cyclic AMP assay (HitHunter), FSK-induced cAMP production in PC3 cells; assay type: cell-based, human; conditions: for Imax, inhibition of FSK-induced cAMP production / pIC50, inhibition of FSK-induced cAMP production / IC50: agonist alone; for IC50: read-out: IC50, inhibition of FSK-induced cAMP production
Description: The assays were performed using the HitHunter® cAMP assay kit (Eurofins DiscoverX Products, Celle-L’Evescault, France) according to the vendor’s protocol and previous studies. Briefly, cells were detached using cell dissociation buffer, counted and seeded at 2 × 10^4 cells per well in […] of complete medium onto white 96-well plates and incubated at 37 °C and 5% CO2 for approximately 24 h before running the experiment. The assays and the drug dilutions were performed in a 1:1 mixture of DMEM and Ham’s F12 medium without phenol red, containing […] of rolipram and forskolin (FSK; 7b-acetoxy-8,13-epoxy-1a,6b,9 atrihydroxylabd-14-en-11-one). Before running the assay, the medium was discarded, and cells were washed with D-MEM/F-12 medium. Then, cells were treated with the assigned drugs (30 μL per well) and incubated for 30 min at 37 °C and 5% CO2. Finally, cAMP standards and the appropriate mixture of kit components were added (as described by the manufacturer, Eurofins DiscoverX Products, Celle-L’Evescault, France). Plates were incubated overnight at room temperature in the dark. Chemiluminescent signals were detected on a Synergy HT Multi-Mode Microplate Reader (ThermoFisher Scientific, Loughborough, UK).
(§2) Values for half of the maximal effective concentration required to elicit a response (EC50), or for the half maximal inhibitory concentration (IC50) required to inhibit a response, as well as for maximal effect (Emax), standard error of the mean (S.E.M.) and 95% confidence limits of EC50 and IC50, have been calculated by nonlinear regression analysis using the equation for a sigmoid concentration–response curve (GraphPad Prism v5.0, San Diego, CA, USA). Paired Student’s t-test or one-way ANOVA analysis of variance (with Tukey’s post hoc analysis) was used where appropriate for cell viability and western blotting data. A value of p < 0.05 was taken as being significant.

[3] = system: cannabinoid CB1 or CB2 receptors (PC3 cell membranes); test: [35S]GTPγS binding in PC3 cell membranes; assay type: biochemical, human; conditions: for EC50: agonist alone, read-out: EC50, stimulation of [35S]GTPγS binding
Description: as §1
The measurement of ligand-stimulated [^35S]GTPγS binding to cannabinoid CB1 or CB2 receptors was adapted from methods described previously. The assays were carried out with GTPγS-binding buffer (50 mM Tris–HCl, 50 mM Tris-Base, 5 mM MgCl2, 1 mM ethylenediaminetetraacetic acid, 100 mM NaCl, 1 mM dithiothreitol and 0.1% bovine serum albumin) in the presence of [^35S]GTPγS and GDP, in a final volume of 500 μL. Binding was initiated by the addition of [^35S]GTPγS to the wells. Non-specific binding was measured in the presence of 30 μM GTPγS. The drugs were incubated in the assay for 60 min at 30 °C. The reaction was terminated by a rapid vacuum filtration method using Tris-binding buffer, as described previously, and the radioactivity was quantified by liquid scintillation spectrometry. In all the [^35S]GTPγS-binding assays, we used 0.1 nM [^35S]GTPγS, 30 μM GDP and a protein concentration of 40 μg per well for PC3 and LNCaP cell membranes. Compounds were stored at −20 °C in DMSO.
Paired Student’s t-test or one-way ANOVA analysis of variance (with Tukey’s post hoc analysis) was used where appropriate for cell viability and western blotting data. A value of p < 0.05 was taken as being significant.

CB1 receptors = system: CB1 receptors; design: method as in PMID 19286662; conditions: hCB1/CB2-CHO transfected cells; cited from earlier work
CB2 receptors = system: CB2 receptors; design: method as in PMID 19286662; conditions: hCB1/CB2-CHO transfected cells, β-arrestin assay; cited from earlier work
[4] = system: cleaved caspase 3 (CASP-3); test: Western blot of cleaved caspase 3 levels in PC3 cells; assay type: cell-based, human
Description: (§3) Cells were homogenized in lysis buffer [20 mM Tris, 0.25 M sucrose, 10 mM ethyleneglycol-bis(aminoethylether)-tetraacetic acid, 2 mM ethylenediaminetetraacetic acid, 1 mM sodium orthovanadate, 25 mM sodium β-glycerophosphate and 50 mM sodium fluoride; pH 7.5]. Prior to use, 0.1% (vol:vol), protease Inhibitor Cocktail (Merck Life Science Ltd, Gillingham, UK) was added. A total of 20 μg of protein was electrophoresed through a precast 16% polyacrylamide gel (Thermo Fisher, Oxford, UK) for 2 h and the separated proteins were transferred to nitrocellulose membranes (Bio-Rad, UK), then blocked with 5% (wt:vol) skimmed milk in Tris-buffered saline with 0.1% (vol:vol) Tween 20 (TBST solution) at room temperature and incubated with 1:200 dilution of anti-pAKT (Ser473) antibody (Merck Life Science Limited, Watford, Hertfordshire UK) or 1:200 cleaved-CASP-3 antibody (Insight Biotechnology, UK) at 4 °C overnight. β-Actin (1:20,000) was used as an internal loading control to normalize between lanes during densitometry. The appropriate secondary antibody for pAKT (anti-mouse), cleaved-CASP-3 (anti-mouse) was used at a concentration of 1:5000 (Insight Biotechnology Ltd, Wembley, Middlesex, UK) and incubated at room temperature for 1 h. […]

LNCaP cells = test: Cell viability (MTT) assay in LNCaP cells; assay type: cell-based, human; conditions: 24 h, DIM alone
Description: (§4) Human prostate cancer cell lines, LNCaP and PC3, were obtained from the European Collection of Animal Cell Cultures. These were cultured in RPMI 1640 medium (Merck Life Science Ltd., Gillingham, UK) containing 10% (vol:vol) fetal bovine serum and 1% (vol:vol) Penicillin–Streptomycin Solution (10,000 U/mL penicillin and 10 mg/mL streptomycin in 0.9% sodium chloride (Merck Life Science Ltd., Gillingham, UK).
(§5) A standard 3-(4,-5-dimethylthiazol-2-yl)-2,-5-diphenyl tetrazolium bromide (MTT) dye reduction assay was used to assess compounds. Briefly, cells were plated in a flat-bottomed 96-well plate at seeding densities of 6 × 10^3 cells per well for LNCaP cells and 5 × 10^3 cells per well for PC3 cells. Cells were treated the following day with the appropriate agents for 24 h. Following the incubation period, the MTT solution (5 mg/mL in phosphate-buffered saline) was added and incubated for 4 h. The contents of the wells were removed and replaced with 200 μL DMSO to dissolve the MTT formazan crystals. The plates were immediately read at 570 nm in a multi-well plate reader (DynaTech MR5000; Dynex Technologies Ltd., Chantilly, VA, USA).
as §2

PC3 cells = test: Cell viability (MTT) assay in PC3 cells; assay type: cell-based, human; conditions: 24 h, DIM alone
Description: as §4, §5, §2

phosphor-AKT (Ser473) = test: Western blot of phospho-AKT (Ser473) levels in PC3 cells; assay type: cell-based, human
Description: as §3

Structure (SMILES) | EC50 [1] | Imax, inhibition of FSK-induced cAMP production [2] | pIC50, inhibition of FSK-induced cAMP production [2] | IC50 [2] | EC50 [3] | Functional behaviour on CB1 receptors (CB1 receptors) | Functional behaviour on CB2 receptors (CB2 receptors) | Agonist behaviour in [35S]GTPγS binding [3] | Cleaved CASP-3 level ([4]; DIM 50 nM) | Cleaved CASP-3 level ([4]; DIM 50 µM) | IC50 (LNCaP cells) | Imax, cell viability (LNCaP cells) | pIC50, cell viability (LNCaP cells) | IC50 (PC3 cells) | Imax, cell viability (PC3 cells) | pIC50, cell viability (PC3 cells) | pAKT level (phosphor-AKT (Ser473); DIM 50 nM) | pAKT level (phosphor-AKT (Ser473); DIM 50 µM) | Effect of CB1 antagonist on DIM's inhibition of FSK-induced cAMP production [2]
CCCCCCC(C)(C)c1ccc([C@@H]2C[C@H](O)CC[C@H]2CCCO)c(O)c1 [CP 55,940] | 2.56 nM | 9.74 | 8.314 | 4.85 nM | 6.14 nM |  |  |  |  |  |  |  |  |  |  |  |  |  | 
c1ccc2c(Cc3c[nH]c4ccccc34)c[nH]c2c1 [DIM, 3-3′-Diindolylmethane] | 32.1 nM | 17.36 | 7.870 | 13.5 nM | 9.28 nM | slight inverse agonist | partially activate; also recorded: partial agonist | full agonist behavior | significant increase | significant increase | 85000 nM | -16.63 | 4.071 | 38900 nM | 8.50 | 4.410 | no significant reduction | strong and significant reduction | 
Cc1c(C(=O)NN2CCCCC2)nn(-c2ccc(Cl)cc2Cl)c1-c1ccc(Cl)cc1 [SR1] |  |  |  |  |  |  |  |  |  |  |  |  |  |  |  |  |  |  | no effect
